Target: T1, c-kit mutant D816V (Homo sapiens, UniProt P10721, D816V/DEL694-753)
T1 construct: residues 551-934, kinase insertion domain residues 694-753 deleted; 6x-histidine (N); made in house; host or cells: E. coli Arctic Express (DE3) RIL (Stratagene)
Experiment: c-Kit mutant D816V biochemical assay, AlphaScreen
Details: c-kit D816V biochemical inhibitory activity; read-out: Biochemical activity (IC50 μM) Kit D816V
Protocol: Compounds to be tested were dissolved in DMSO to a concentration of 20 mM. These were diluted 30 μl into 120 μl of DMSO (4 mM) and 1 μl was added to an assay plate. These were then serially diluted 1:3 (50 μl to 100 μl DMSO) for a total of 8 points. Plates were prepared such that each kinase reaction is 20 μl in 1× kinase buffer (25 mM HEPES, pH 7.2, 8 mM MgCl2, 2 mM MnCl2, 50 mM NaCl, 0.01% Brij, 1 mM DTT, 0.01% BSA), 5% DMSO and 10 μM ATP. […] After incubation of the kinase reaction for 30 minutes at room temperature, 5 μl of donor beads (Streptavidin coated beads (Perkin Elmer Life Science) final concentration 7.5 μg/ml) in stop buffer (25 mM Hepes pH 7.5, 100 mM EDTA, 0.01% BSA) was added, the sample was mixed and incubated for 20 minutes at room temperature before adding 5 μl of acceptor beads (PY20 coated beads (Perkin Elmer Life Science) final concentration 7.5 μg/ml) in stop buffer. The samples were incubated for 60 minutes at room temperature and the signal per well was read on EnVision reader. […] The signal vs. compound concentration was used to determine the IC50.
Cells were grown in Terrific Broth (TB) media to an OD600 of 0.6 at 37° C. at which temperature was reduced to 10° C., protein was induced with 1.0 mM IPTG for 18 hours and harvested by centrifugation at 8000×g for 20 minutes. Cells were re-suspended in 0.1M KPO4 pH 8.0, 250 mM NaCl, 10% Glycerol, 0.75% NP-40, 25 mM Imidazole, 5 mM BME with 0.2 mg/ml Lysosyme, 2.0 mM PMSF, 25 μg/ml DNAse I, incubated in ice for 30 minutes and lysed with a cell disruptor (MicroFluidics). The lysate was clarified by centrifugation at 20,000×g for 2 hours. The protein was captured with Talon resin (Clontech). Contaminating proteins were washed off with 25 mM Tris-HCl pH 8.3, 250 mM NaCl, 15% Glycerol, 1% Triton X-100, and protein eluted using 100 mM EDTA. The protein was further purified using Gel Filtration column 26/600 Superdex 200 (GE) in 50 mM Tris-HCl, pH 8.0, 250 mM NaCl, 15% Glycerol, 5 mM BME. The protein was aliquoted and flash-frozen in liquid Nitrogen.

T1 sequence (P10721 with tags, fused parts or gaps DEL694-753/D816V): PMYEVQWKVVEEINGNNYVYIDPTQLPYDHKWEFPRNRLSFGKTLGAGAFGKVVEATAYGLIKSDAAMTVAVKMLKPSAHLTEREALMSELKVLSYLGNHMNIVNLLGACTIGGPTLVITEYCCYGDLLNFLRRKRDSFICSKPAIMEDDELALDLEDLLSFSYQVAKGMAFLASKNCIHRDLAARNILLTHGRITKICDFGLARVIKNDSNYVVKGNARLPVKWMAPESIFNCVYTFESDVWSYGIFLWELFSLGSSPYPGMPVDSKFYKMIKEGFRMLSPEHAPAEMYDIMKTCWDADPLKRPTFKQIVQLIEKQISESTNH

SMILES: COc1ccc(CNC(=O)N2CCN(c3ncnc4[nH]c(-c5ccc(F)cc5)cc34)CC2)cn1 [P-0129, 4-[6-(4-fluorophenyl)-7H-pyrrolo[2,3-d]pyrimidin-4-yl]-N-[(6-methoxy-3-pyridyl)methyl]piperazine-1-carboxamide]
- IC50: 0.0001 to 1 µM

SMILES: O=C(NCc1ccc(Cl)cc1)N1CCN(c2ncnc3[nH]c(C4CC4)cc23)CC1 [P-0138, N-[(4-chlorophenyl)methyl]-4-(6-cyclopropyl-7H-pyrrolo[2,3-d]pyrimidin-4-yl)piperazine-1-carboxamide]
- IC50: 0.0001 to 1 µM

SMILES: O=C(NCc1ccc(Cl)cc1)N1CCN(c2ncnc3[nH]c(Cl)cc23)CC1 [P-0139, N-[(4-chlorophenyl)methyl]-4-(6-chloro-7H-pyrrolo[2,3-d]pyrimidin-4-yl)piperazine-1-carboxamide]
- IC50: 1 to 10 µM

SMILES: COc1ncc(F)cc1CNC(=O)N1CCN(c2ncnc3[nH]c(-c4cccnc4)cc23)CC1 [P-0140, N-[(5-fluoro-2-methoxy-3-pyridyl)methyl]-4-[6-(3-pyridyl)-7H-pyrrolo[2,3-d]pyrimidin-4-yl]piperazine-1-carboxamide]
- IC50: 1 to 10 µM

SMILES: Cc1ccc(NS(=O)(=O)N2CCN(c3ncnc4[nH]c(-c5ccc(Cl)cc5)cc34)CC2)cc1 [P-0142, 4-[6-(4-chlorophenyl)-7H-pyrrolo[2,3-d]pyrimidin-4-yl]-N-(p-tolyl)piperazine-1-sulfonamide]
- IC50: 10 to 200 µM

SMILES: O=C(NC(=O)N1CCN(c2ncnc3[nH]c(-c4ccc(F)cc4)cc23)CC1)c1ccccc1 [P-0143, N-benzoyl-4-[6-(4-fluorophenyl)-7H-pyrrolo[2,3-d]pyrimidin-4-yl]piperazine-1-carboxamide]
- IC50: 1 to 10 µM

SMILES: COc1ccc([C@@H](C)NC(=O)N2CCN(c3ncnc4[nH]c(-c5ccc(F)cc5)cc34)CC2)cc1 [P-0145]
- IC50: 10 to 200 µM

SMILES: C[C@@H](NC(=O)N1CCN(c2ncnc3[nH]c(-c4ccc(F)cc4)cc23)CC1)c1ccc(F)cc1 [P-0146, N-[(1R)-1-(4-fluorophenyl)ethyl]-4-[6-(4-fluorophenyl)-7H-pyrrolo[2,3-d]pyrimidin-4-yl]piperazine-1-carboxamide]
- IC50: 10 to 200 µM

SMILES: C[C@@H](NC(=O)N1CCN(c2ncnc3[nH]c(-c4ccc(F)cc4)cc23)CC1)c1ccc(F)cc1 [P-0147, N-[(1R)-1-(4-fluorophenyl)ethyl]-4-[6-(4-fluorophenyl)-7H-pyrrolo[2,3-d]pyrimidin-4-yl]piperazine-1-carboxamide]
- IC50: 1 to 10 µM

SMILES: O=C(NC1CCCC1)N1CCN(c2ncnc3[nH]c(-c4ccc(F)cc4)cc23)CC1 [P-0148, N-cyclopentyl-4-[6-(4-fluorophenyl)-7H-pyrrolo[2,3-d]pyrimidin-4-yl]piperazine-1-carboxamide]
- IC50: 10 to 200 µM

SMILES: O=C(Nc1cccnc1)N1CCN(c2ncnc3[nH]ccc23)CC1 [P-0152, N-(3-pyridyl)-4-(7H-pyrrolo[2,3-d]pyrimidin-4-yl)piperazine-1-carboxamide]
- IC50: 0.0001 to 1 µM

SMILES: Cc1ccccc1C(=O)c1c[nH]c2ncnc(N3CCN(C(=O)NCc4ccc(F)cc4)CC3)c12 [P-0160, N-[(4-fluorophenyl)methyl]-4-[5-(2-methylbenzoyl)-7H-pyrrolo[2,3-d]pyrimidin-4-yl]piperazine-1-carboxamide]
- IC50: 1 to 10 µM

SMILES: O=C(NCCc1ccc(Cl)cc1)N1CCN(c2ncnc3[nH]c(-c4ccc(F)cc4)cc23)CC1 [P-0161, N-[2-(4-chlorophenyl)ethyl]-4-[6-(4-fluorophenyl)-7H-pyrrolo[2,3-d]pyrimidin-4-yl]piperazine-1-carboxamide]
- IC50: 0.0001 to 1 µM

SMILES: O=C(NCCc1ccccc1)N1CCN(c2ncnc3[nH]c(-c4ccc(F)cc4)cc23)CC1 [P-0162, 4-[6-(4-fluorophenyl)-7H-pyrrolo[2,3-d]pyrimidin-4-yl]-N-phenethyl-piperazine-1-carboxamide]
- IC50: 10 to 200 µM

SMILES: O=C(NCc1cccc(F)c1)N1CCN(c2ncnc3[nH]ccc23)CC1 [P-0163, N-[(3-fluorophenyl)methyl]-4-(7H-pyrrolo[2,3-d]pyrimidin-4-yl)piperazine-1-carboxamide]
- IC50: 10 to 200 µM

SMILES: O=C(NCCc1ccc(F)cc1)N1CCN(c2ncnc3[nH]ccc23)CC1 [P-0164, N-[2-(4-fluorophenyl)ethyl]-4-(7H-pyrrolo[2,3-d]pyrimidin-4-yl)piperazine-1-carboxamide]
- IC50: 10 to 200 µM

SMILES: O=C(NC(=O)N1CCN(c2ncnc3[nH]ccc23)CC1)c1ccccc1 [P-0174, N-benzoyl-4-(7H-pyrrolo[2,3-d]pyrimidin-4-yl)piperazine-1-carboxamide]
- IC50: 10 to 200 µM

SMILES: O=C(NCc1ccc(F)cc1)N1CCN(c2ncnc3[nH]cc(C4CC4)c23)CC1 [P-0179, 4-(5-cyclopropyl-7H-pyrrolo[2,3-d]pyrimidin-4-yl)-N-[(4-fluorophenyl)methyl]piperazine-1-carboxamide]
- IC50: 1 to 10 µM

SMILES: Cc1ccccc1C(=O)c1c[nH]c2ncnc(N3CCN(C(=O)OC(C)(C)C)CC3)c12 [P-0187, tert-butyl 4-[5-(2-methylbenzoyl)-7H-pyrrolo[2,3-d]pyrimidin-4-yl]piperazine-1-carboxylate]
- IC50: 0.0001 to 1 µM

SMILES: CC(C)(C)OC(=O)N1CCN(c2ncnc3[nH]c(C(=O)Nc4ccccc4)cc23)CC1 [P-0211, tert-butyl 4-[6-(phenylcarbamoyl)-7H-pyrrolo[2,3-d]pyrimidin-4-yl]piperazine-1-carboxylate]
- IC50: 0.0001 to 1 µM

SMILES: COc1cccc(NC(=O)N2CCN(c3ncnc4[nH]cc(-c5ccccc5)c34)CC2)c1 [P-0228, N-(3-methoxyphenyl)-4-(5-phenyl-7H-pyrrolo[2,3-d]pyrimidin-4-yl)piperazine-1-carboxamide]
- IC50: 1 to 10 µM

SMILES: COc1cccc(NC(=O)N2CCN(c3ncnc4[nH]c(-c5cccnc5)cc34)CC2)c1 [P-0231, N-(3-methoxyphenyl)-4-[6-(3-pyridyl)-7H-pyrrolo[2,3-d]pyrimidin-4-yl]piperazine-1-carboxamide]
- IC50: 1 to 10 µM

SMILES: COc1cccc(NC(=O)N2CCN(c3ncnc4[nH]c(-c5ccccc5)cc34)CC2)c1 [P-0238, N-(3-methoxyphenyl)-4-(6-phenyl-7H-pyrrolo[2,3-d]pyrimidin-4-yl)piperazine-1-carboxamide]
- IC50: 10 to 200 µM

SMILES: COc1cc2ncnc(-c3ccc(NS(C)(=O)=O)c(F)c3)c2cc1OC [P-0272, N-[4-(6,7-dimethoxyquinazolin-4-yl)-2-fluoro-phenyl]methanesulfonamide]
- IC50: 0.0001 to 1 µM

SMILES: COc1ccc(S(=O)(=O)Nc2ccc(-c3ncnc4cc(OC)c(OC)cc34)cc2F)cc1 [P-0273, N-[4-(6,7-dimethoxyquinazolin-4-yl)-2-fluoro-phenyl]-4-methoxy-benzenesulfonamide]
- IC50: 0.0001 to 1 µM

SMILES: COc1cc2ncnc(-c3ccc(NS(=O)(=O)N4CCCC4)c(F)c3)c2cc1OC [P-0274, N-[4-(6,7-dimethoxyquinazolin-4-yl)-2-fluoro-phenyl]pyrrolidine-1-sulfonamide]
- IC50: 1 to 10 µM

SMILES: CCCS(=O)(=O)Nc1ccc(-c2ncnc3cc(OC)c(OC)cc23)cc1F [P-0275, N-[4-(6,7-dimethoxyquinazolin-4-yl)-2-fluoro-phenyl]propane-1-sulfonamide]
- IC50: 1 to 10 µM

SMILES: Cc1cc2c(-c3ccc(NS(=O)(=O)c4ccc(C(C)C)cc4)cc3)ncnc2[nH]1 [P-0306, 4-isopropyl-N-[4-(6-methyl-7H-pyrrolo[2,3-d]pyrimidin-4-yl)phenyl]benzenesulfonamide]
- IC50: 1 to 10 µM

SMILES: Cc1cc2c(-c3ccc(NS(=O)(=O)c4ccc(C(F)(F)F)cn4)cc3)ncnc2[nH]1 [P-0312, N-[4-(6-methyl-7H-pyrrolo[2,3-d]pyrimidin-4-yl)phenyl]-5-(trifluoromethyl)pyridine-2-sulfonamide]
- IC50: 1 to 10 µM

SMILES: Cc1cc2c(-c3ccc(NS(=O)(=O)c4ccc(Cl)c(Cl)c4)cc3)ncnc2[nH]1 [P-0316, 3,4-dichloro-N-[4-(6-methyl-7H-pyrrolo[2,3-d]pyrimidin-4-yl)phenyl]benzenesulfonamide]
- IC50: 1 to 10 µM

SMILES: O=S(=O)(Nc1ccc(-c2ncnc3[nH]c(-c4ccc(F)cc4F)cc23)c(F)c1)c1ccc(F)cc1 [P-0332, N-[4-[6-(2,4-difluorophenyl)-7H-pyrrolo[2,3-d]pyrimidin-4-yl]-3-fluoro-phenyl]-4-fluoro-benzenesulfonamide]
- IC50: 0.0001 to 1 µM

SMILES: Nc1ccc(-c2ncnc3[nH]c(-c4ccc(F)cc4F)cc23)c(F)c1 [P-0341, 4-[6-(2,4-difluorophenyl)-7H-pyrrolo[2,3-d]pyrimidin-4-yl]-3-fluoro-aniline]
- IC50: 0.0001 to 1 µM

SMILES: CS(=O)(=O)Nc1ccccc1-c1ncnc2[nH]c(-c3ccc(F)cc3)cc12 [P-0375, N-[2-[6-(4-fluorophenyl)-7H-pyrrolo[2,3-d]pyrimidin-4-yl]phenyl]methanesulfonamide]
- IC50: 10 to 200 µM

From patent US10227357B2, “Compounds and methods for kinase modulation, and indications therefor” (Plexxikon Inc., priority 2012, dated 2019)
